Common to all, as to type: functional
Test [1] has as its system Escherichia coli. Kind of test: Antibacterial activity against Escherichia coli by broth microdilution technique.
Test [2] has as its system Enterococcus faecalis. Nature of the test: Antibacterial activity against Enterococcus faecalis ATCC 29212 by broth microdilution technique.
Test [3] concerns Staphylococcus aureus. Nature of the test: Antibacterial activity against multidrug resistant Staphylococcus aureus clinical isolate by broth microdilution technique.
The subject of test [4] is Staphylococcus aureus. Kind of test: Antibacterial activity against Staphylococcus aureus ATCC 25923 by broth microdilution technique.
In test [5] the test system is Pseudomonas aeruginosa. Nature of the test: Antibacterial activity against Pseudomonas aeruginosa by broth microdilution technique.
For test [6], the system named is Staphylococcus epidermidis. Kind of test: Antibacterial activity against Staphylococcus epidermidis ATCC 12228 by broth microdilution technique.
In test [7] the test system is Pseudomonas aeruginosa. Kind of test: Antibacterial activity against multidrug resistant Pseudomonas aeruginosa clinical isolate by broth microdilution technique.
For test [8], the system named is Staphylococcus epidermidis. Nature of the test: Selectivity ratio of MIC of ciprofloxacin to MIC of compound for Staphylococcus epidermidis ATCC 12228.

Structures are written as SMILES. Values after ≈ are worked out from the molar mass of the structure shown. Some results are limits rather than exact numbers.

`O=C(O)c1cn(C2CC2)c2nc(N3CCC(n4cc(-c5ccccc5)nn4)CC3)c(F)cc2c1=O`: the minimal inhibitory concentration (MIC) was 32 µg/mL (≈ 67.4 µM) in test [1]; 1 µg/mL (≈ 2.11 µM) in test [2]; 0.5 µg/mL (≈ 1.05 µM) in test [3]; 0.5 µg/mL (≈ 1.05 µM) in test [4]; above 32 µg/mL in test [5]; 0.5 µg/mL (≈ 1.05 µM) in test [6].

For `O=C(O)c1cn(C2CC2)c2nc(N3CCC(n4cc(/C=N/O)nn4)CC3)c(F)cc2c1=O`, the MIC is 2 µg/mL (≈ 4.53 µM) in test [1]; 32 µg/mL (≈ 72.5 µM) in test [7]; 4 µg/mL (≈ 9.06 µM) in test [2]; above 32 µg/mL in test [3]; 1 µg/mL (≈ 2.27 µM) in test [4]; 32 µg/mL (≈ 72.5 µM) in test [5]. Inhibition of growth in test [6] (MIC) required 1 µg/mL (≈ 2.27 µM).

For `O=C(O)c1cn(C2CC2)c2nc(N3CCC(n4cc(CO)nn4)CC3)c(F)cc2c1=O`, the MIC in test [1] is 0.5 µg/mL (≈ 1.17 µM); in test [7] it was 32 µg/mL (≈ 74.7 µM); in test [2], 2 µg/mL (≈ 4.67 µM); in test [3], above 32 µg/mL; in test [4], 0.125 µg/mL (≈ 0.292 µM); in test [5], 32 µg/mL (≈ 74.7 µM). Moreover, it took 0.5 µg/mL (≈ 1.17 µM) to inhibit growth in test [6] (MIC).

Regarding `NCc1cn(C2CCN(c3nc4c(cc3F)c(=O)c(C(=O)O)cn4C3CC3)CC2)nn1`, the MIC in test [1] was 16 µg/mL (≈ 37.4 µM); in test [7], 32 µg/mL (≈ 74.9 µM); in test [2] it was above 32 µg/mL; in test [3] it was above 32 µg/mL; in test [4], 16 µg/mL (≈ 37.4 µM); in test [5], 32 µg/mL (≈ 74.9 µM). Further, 32 µg/mL (≈ 74.9 µM) was the least that counted as inhibitory in test [6] (MIC).

Regarding `COC(=O)c1cn(C2CCN(c3nc4c(cc3F)c(=O)c(C(=O)O)cn4C3CC3)CC2)nn1`, the MIC in test [1] is 1 µg/mL (≈ 2.19 µM); in test [7], 32 µg/mL (≈ 70.1 µM); in test [2] it was 16 µg/mL (≈ 35.1 µM); in test [3] it was above 32 µg/mL; in test [4], 1 µg/mL (≈ 2.19 µM); in test [5], 32 µg/mL (≈ 70.1 µM). Also, the MIC in test [6] was determined as 1 µg/mL (≈ 2.19 µM).

In the case of `NC(=O)c1cn(C2CCN(c3nc4c(cc3F)c(=O)c(C(=O)O)cn4C3CC3)CC2)nn1`, the MIC in test [1] was 4 µg/mL (≈ 9.06 µM); in test [7] it was 32 µg/mL (≈ 72.5 µM); in test [2], 4 µg/mL (≈ 9.06 µM); in test [3], above 32 µg/mL; in test [4] it was 1 µg/mL (≈ 2.27 µM); in test [5] it was 32 µg/mL (≈ 72.5 µM). The same compound came in with a minimal inhibitory concentration (MIC) in test [6] of 2 µg/mL (≈ 4.53 µM).

Regarding `O=C(O)c1cn(C2CC2)c2nc(N3CCC(n4cc(/C=N/OCc5ccccc5)nn4)CC3)c(F)cc2c1=O`, the MIC in test [1] worked out at 8 µg/mL (≈ 15.1 µM); in test [7], 32 µg/mL (≈ 60.2 µM); in test [2] it was 4 µg/mL (≈ 7.53 µM); in test [3] it was 4 µg/mL (≈ 7.53 µM); in test [4], 1 µg/mL (≈ 1.88 µM); in test [5], 32 µg/mL (≈ 60.2 µM). Moreover, the MIC in test [6] is 1 µg/mL (≈ 1.88 µM).

Consider `O=Cc1cn(C2CCN(c3nc4c(cc3F)c(=O)c(C(=O)O)cn4C3CC3)CC2)nn1`, for which the Ratio in test [8] came out at 16. Also, the minimal inhibitory concentration (MIC) was 0.25 µg/mL (≈ 0.586 µM) in test [1]; 32 µg/mL (≈ 75 µM) in test [7]; 2 µg/mL (≈ 4.69 µM) in test [2]; above 32 µg/mL in test [3]; 0.125 µg/mL (≈ 0.293 µM) in test [4]; 16 µg/mL (≈ 37.5 µM) in test [5]. For the same compound, 0.031 µg/mL (≈ 0.0727 µM) was the least that counted as inhibitory in test [6] (MIC).

`CC(O)c1cn(C2CCN(c3nc4c(cc3F)c(=O)c(C(=O)O)cn4C3CC3)CC2)nn1` (stereo unspecified): the MIC in test [1] is 1 µg/mL (≈ 2.26 µM); in test [7], 32 µg/mL (≈ 72.3 µM); in test [2], 8 µg/mL (≈ 18.1 µM); in test [3], above 32 µg/mL; in test [4], 2 µg/mL (≈ 4.52 µM); in test [5] it was 32 µg/mL (≈ 72.3 µM). The compound further yielded an MIC in test [6] of 2 µg/mL (≈ 4.52 µM).

Consider `CO/N=C/c1cn(C2CCN(c3nc4c(cc3F)c(=O)c(C(=O)O)cn4C3CC3)CC2)nn1`, for which the MIC was 2 µg/mL (≈ 4.39 µM) in test [1]; 32 µg/mL (≈ 70.3 µM) in test [7]; 4 µg/mL (≈ 8.78 µM) in test [2]; above 32 µg/mL in test [3]; 0.25 µg/mL (≈ 0.549 µM) in test [4]; 32 µg/mL (≈ 70.3 µM) in test [5]. The compound also registered an MIC in test [6] of 0.5 µg/mL (≈ 1.1 µM).

In the case of `CCO/N=C/c1cn(C2CCN(c3nc4c(cc3F)c(=O)c(C(=O)O)cn4C3CC3)CC2)nn1`, the minimal inhibitory concentration (MIC) in test [1] is 4 µg/mL (≈ 8.52 µM); in test [7] it was 32 µg/mL (≈ 68.2 µM); in test [2] it was 4 µg/mL (≈ 8.52 µM); in test [3] it was 32 µg/mL (≈ 68.2 µM); in test [4] it was 0.5 µg/mL (≈ 1.07 µM); in test [5] it was 32 µg/mL (≈ 68.2 µM). In test [6], the lowest concentration to inhibit growth (MIC) was 1 µg/mL (≈ 2.13 µM).

`C=CCO/N=C/c1cn(C2CCN(c3nc4c(cc3F)c(=O)c(C(=O)O)cn4C3CC3)CC2)nn1`: the MIC is 4 µg/mL (≈ 8.31 µM) in test [1]; 32 µg/mL (≈ 66.5 µM) in test [7]; 8 µg/mL (≈ 16.6 µM) in test [2]; 8 µg/mL (≈ 16.6 µM) in test [3]; 0.5 µg/mL (≈ 1.04 µM) in test [4]; 32 µg/mL (≈ 66.5 µM) in test [5]. It took 2 µg/mL (≈ 4.15 µM) to inhibit growth in test [6] (MIC).

Turning to `C#CCO/N=C/c1cn(C2CCN(c3nc4c(cc3F)c(=O)c(C(=O)O)cn4C3CC3)CC2)nn1`, the MIC in test [1] is 4 µg/mL (≈ 8.34 µM); in test [7], 32 µg/mL (≈ 66.7 µM); in test [2] it was 8 µg/mL (≈ 16.7 µM); in test [3], 32 µg/mL (≈ 66.7 µM); in test [4], 0.5 µg/mL (≈ 1.04 µM); in test [5] it was 32 µg/mL (≈ 66.7 µM). In test [6], the minimum inhibitory concentration (MIC) was found to be 1 µg/mL (≈ 2.09 µM).

Take `CCC(O)c1cn(C2CCN(c3nc4c(cc3F)c(=O)c(C(=O)O)cn4C3CC3)CC2)nn1` (stereo unspecified): the MIC in test [1] is 1 µg/mL (≈ 2.19 µM); in test [7], 32 µg/mL (≈ 70.1 µM); in test [2], 8 µg/mL (≈ 17.5 µM); in test [3] it was above 32 µg/mL; in test [4], 2 µg/mL (≈ 4.38 µM); in test [5], 32 µg/mL (≈ 70.1 µM). Moreover, the lowest concentration to inhibit growth in test [6] (MIC) was 2 µg/mL (≈ 4.38 µM).

With `O=C(O)c1cn(C2CC2)c2cc(N3CCNCC3)c(F)cc2c1=O` [CIPROFLOXACIN], the MIC in test [2] is 1 µg/mL (≈ 3.02 µM); in test [6], 0.5 µg/mL (≈ 1.51 µM).

As to `CN[C@H](CC(C)C)C(=O)N[C@H]1C(=O)N[C@@H](CC(N)=O)C(=O)N[C@H]2C(=O)N[C@H]3C(=O)N[C@H](C(=O)N[C@H](C(=O)O)c4cc(O)cc(O)c4-c4cc3ccc4O)[C@H](O)c3ccc(c(Cl)c3)Oc3cc2cc(c3O[C@@H]2O[C@H](CO)[C@@H](O)[C@H](O)[C@H]2O[C@H]2C[C@](C)(N)[C@H](O)[C@H](C)O2)Oc2ccc(cc2Cl)[C@H]1O` [VANCOMYCIN], in test [2], the MIC was found to be 0.5 µg/mL (≈ 0.345 µM).
